Source: ChEMBL document CHEMBL5705903, “A DNA Hypomethylation Signature Predicts Antitumor Activity of LSD1 Inhibitors in SCLC” (Cancer Cell, 2015)
Active and inactive are the calls of the source. The rule behind the calls is not given here.

Legend:
[1] = Inhibition of GABA-A receptor (unknown origin); set-up: species or system Homo sapiens
[2] = Tmax in mouse at 5.5 mg/kg, ip by HPLC/MS/MS analysis; type: ADME, organism-based; settings: in vivo
[3] = AUC (0 to infinity) in mouse at 5.5 mg/kg, ip by HPLC/MS/MS analysis; type: ADME, organism-based; settings: in vivo
[4] = AUC (0 to last) in mouse blood at 5 mg/kg, po by HPLC/MS/MS analysis; type: ADME, organism-based
[5] = AUC (0 to last) in mouse tumor at 5 mg/kg, po by HPLC/MS/MS analysis; type: ADME, organism-based, Neoplasm
[6] = Tmax in mouse tumor at 5 mg/kg, po by HPLC/MS/MS analysis; type: ADME, organism-based, Neoplasm
[7] = Toxicity in mouse xenografted with human NCI-H526 cells assessed as body weight loss at 1.5 mg/kg, po administered daily measured for 30 days; type: organism-based; settings: in vivo, 720 h, time 30 day
[8] = Effect on cleaved PARP level in human NCI-H1417 cells assessed as relative expression at 10 nM measured after 7 days by Western blot analysis (reference value: 0.10); type: functional; settings: time 7 day
[9] = Effect on cleaved PARP level in human NCI-H1417 cells assessed as relative expression at 100 nM measured after 10 days by Western blot analysis (reference value: 0.19); type: functional; settings: time 10 day
[10] = Effect on cleaved PARP level in human NCI-H1417 cells assessed as fold change at 100 nM measured after 10 days by Western blot analysis (reference value: 1.00); type: functional; settings: time 10 day
[11] = Effect on cleaved PARP level in human NCI-H526 cells assessed as relative expression at 10 nM measured after 7 days by Western blot analysis (reference value: 0.57); type: functional; settings: time 7 day
[12] = Effect on cleaved PARP level in human NCI-H526 cells assessed as fold change at 100 nM measured after 7 days by Western blot analysis (reference value: 1.00); type: functional; settings: time 7 day
[13] = Effect on cleaved PARP level in human NCI-H524 cells assessed as fold change at 10 nM measured after 10 days by Western blot analysis (reference value: 1.00); type: functional; settings: time 10 day
[14] = Effect on cleaved PARP level in human NCI-H524 cells assessed as fold change at 1000 nM measured after 10 days by Western blot analysis (reference value: 1.00); type: functional; settings: time 10 day
[15] = Effect on cleaved PARP level in human COLO-668 cells assessed as relative expression at 10 nM measured after 7 days by Western blot analysis (reference value: […]); type: functional; settings: time 7 day
[16] = Effect on cleaved PARP level in human COLO-668 cells assessed as relative expression at 100 nM measured after 10 days by Western blot analysis (reference value: 1.07); type: functional; settings: time 10 day
[17] = Effect on cleaved PARP level in human COLO-668 cells assessed as relative expression at 1000 nM measured after 10 days by Western blot analysis (reference value: 1.07); type: functional; settings: time 10 day
[18] = Effect on cleaved PARP level in human COLO-668 cells assessed as fold change at 10 nM measured after 10 days by Western blot analysis (reference value: 1.00); type: functional; settings: time 10 day
[19] = Effect on cleaved PARP level in human NCI-H1694 cells assessed as relative expression at 1000 nM measured after 7 days by Western blot analysis (reference value: 0.25); type: functional; settings: time 7 day
[20] = Effect on cleaved PARP level in human NCI-H69 cells assessed as relative expression at 100 nM measured after 7 days by Western blot analysis (reference value: 0.02); type: functional; settings: time 7 day
[21] = Effect on cleaved PARP level in human NCI-H510 cells assessed as relative expression at 1000 nM measured after 7 days by Western blot analysis (reference value: 0.24); type: functional, NCI-H510A; settings: time 7 day
[22] = Effect on cleaved PARP level in human NCI-H889 cells assessed as fold change at 1000 nM measured after 7 days by Western blot analysis (reference value: 1.00); type: functional; settings: time 7 day
[23] = Effect on cleaved PARP level in human NCI-H889 cells assessed as fold change at 1000 nM measured after 14 days by Western blot analysis (reference value: 1.00); type: functional; settings: time 14 day
[24] = Effect on cleaved PARP level in human NCI-H2171 cells assessed as relative expression at 10 nM measured after 14 days by Western blot analysis (reference value: 0.01); type: functional; settings: time 14 day
[25] = Effect on cleaved PARP level in human NCI-H2171 cells assessed as fold change at 1000 nM measured after 7 days by Western blot analysis (reference value: 1.00); type: functional; settings: time 7 day
[26] = Effect on cleaved PARP level in human NCI-H146 cells assessed as relative expression at 10 nM measured after 14 days by Western blot analysis (reference value: 2.42); type: functional; settings: time 14 day
[27] = Toxicity in rat assessed as effect on ECG measured for 28 days; settings: in vivo, 672 h, time 28 day
[28] = Toxicity in dog assessed as neutrophenia measured for 28 days; set-up: species or system Canis lupus familiaris; settings: in vivo, 672 h, time 28 day
NCI-H526 [29] = test: Antitumor activity against human NCI-H526 cells xenografted in nude mouse assessed as mean tumor volume at 1.5 mg/kg, po administered daily measured twice weekly (reference value: 2359 +/- 247 mm3); type: functional
NCI-H2171 [30] = test: Antitumor activity against human NCI-H2171 cells xenografted in nude mouse assessed as mean tumor volume at […] mg/kg, po administered daily measured twice weekly (reference value: 1553 +/- 339 mm3); type: functional; settings: 1.25 mg/kg
NCI-H2171 [31] = test: Antitumor activity against human NCI-H2171 cells xenografted in nude mouse assessed as tumor growth inhibition at […] mg/kg, po administered daily measured twice weekly relative to control; type: functional; settings: read-out: TGI
NCI-H510A = test: Effect on NSE gene expression in human NCI-H510A cells at 1 uM measured after 4 to 7 days by qRT-PCR analysis; type: functional, cell-based; settings: time 4-7 day
NCI-H526 [32] = test: Effect on global H3K4me1 level in human NCI-H526 cells at 10 to 1000 nM measured after 24 hrs by Western blot analysis; type: functional, cell-based; settings: dose 10-1000 nM
NCI-H526 [33] = test: In vivo inhibition of LSD1 in human NCI-H526 cells xenografted in nude mouse assessed as change in ODZ2 gene expression measured after 24 hrs post single administration by qRT-PCR analysis; type: functional, organism-based; settings: dose 0.06-135 mg/kg
NCI-H526 [34] = test: In vivo inhibition of LSD1 in human NCI-H526 cells xenografted in nude mouse assessed as change in IGFBP2 gene expression administrated daily for 5 days by qRT-PCR analysis; type: functional, organism-based; settings: dose 0.02-135 mg/kg, time 5.0 day
NCI-H1417 = test: In vivo inhibition of LSD1 in human NCI-H1417 cells xenografted in nude mouse assessed as change in SNTB1 gene expression measured after 24 hrs post single administration by qRT-PCR analysis; type: functional, organism-based; settings: dose 0.02-135 mg/kg
[35] = Antitumor activity against human PDX L36 cells xenografted in mouse assessed as tumor growth inhibition at 1.5 mg/kg administered daily measured for 20 days relative to control; type: functional; settings: PDX LX36, 480 h, time 20 day, read-out: TGI

c1ccc([C@@H]2C[C@H]2NC2CCNCC2)cc1
IC50 [1]: > 100 µM | Tmax [2]: 18 min | AUC(0-inf) [3]: 938 ng·h/mL

O=C(O)c1ccc(CN2CCC(CN[C@@H]3C[C@H]3c3ccccc3)CC2)cc1 [GSK2879552]
AUC(0-t) [4]: 853 ng·h/mL | AUC(0-t) [5]: 2320 ng·h/mL | Tmax [6]: 30 min | Activity [7]: Non-Toxic | Activity [8]: 0.16 | Activity [9]: 0.4 | fold change (FC) [10]: 2.14 | Activity [11]: 0.48 | fold change (FC) [12]: 1.2 | fold change (FC) [13]: 0.81 | fold change (FC) [14]: 0.83 | Activity [15]: 1.07 | Activity [16]: 0.74 | Activity [17]: 0.63 | fold change (FC) [18]: 0.75 | Activity [19]: 0.36 | Activity [20]: 0.03 | Activity [21]: 0.48 | fold change (FC) [22]: 1.92 | fold change (FC) [23]: 2.82 | Activity [24]: 0.01 | fold change (FC) [25]: 2.18 | Activity [26]: 1.54 | Activity [27]: Toxic | Activity [28]: Toxic | Activity (NCI-H526 [29]): 1113 mm3 | Activity (NCI-H2171 [30]): 1055 mm3 | inhibition in vivo at 1.25 mg/kg (NCI-H2171 [31]): 37% | Activity (NCI-H510A): inactive | Activity (NCI-H526 [32]): inactive | inhibition (NCI-H526 [33]): Dose-Dependent Effect | inhibition (NCI-H526 [34]): Dose-Dependent Effect | inhibition (NCI-H1417): Dose-Dependent Effect | inhibition in vivo at 1.5 mg/kg [35]: 19%
